Patent US20240116985A1, “STAPLED PEPTIDES AND METHODS THEREOF” (priority 2020, published 2024)
pIC50: −log10 of the molar value. Where two headings read alike, the source gives them in different places.

Key:
[1] = biological target: T1, full-length beta-Catenin (Uniprot ID P35222) (Homo sapiens, UniProt P35222); assay: Fluorescence polarization IC50 (beta-catenin / 5FAM-TCF4 10-53 competition); assay type: binding; settings: fluorescence polarization; read-out: beta-Catenin FP IC50
T1 construct: 10 nM full-length beta-Catenin (Uniprot ID P35222)
T1 sequence (P35222 1-781): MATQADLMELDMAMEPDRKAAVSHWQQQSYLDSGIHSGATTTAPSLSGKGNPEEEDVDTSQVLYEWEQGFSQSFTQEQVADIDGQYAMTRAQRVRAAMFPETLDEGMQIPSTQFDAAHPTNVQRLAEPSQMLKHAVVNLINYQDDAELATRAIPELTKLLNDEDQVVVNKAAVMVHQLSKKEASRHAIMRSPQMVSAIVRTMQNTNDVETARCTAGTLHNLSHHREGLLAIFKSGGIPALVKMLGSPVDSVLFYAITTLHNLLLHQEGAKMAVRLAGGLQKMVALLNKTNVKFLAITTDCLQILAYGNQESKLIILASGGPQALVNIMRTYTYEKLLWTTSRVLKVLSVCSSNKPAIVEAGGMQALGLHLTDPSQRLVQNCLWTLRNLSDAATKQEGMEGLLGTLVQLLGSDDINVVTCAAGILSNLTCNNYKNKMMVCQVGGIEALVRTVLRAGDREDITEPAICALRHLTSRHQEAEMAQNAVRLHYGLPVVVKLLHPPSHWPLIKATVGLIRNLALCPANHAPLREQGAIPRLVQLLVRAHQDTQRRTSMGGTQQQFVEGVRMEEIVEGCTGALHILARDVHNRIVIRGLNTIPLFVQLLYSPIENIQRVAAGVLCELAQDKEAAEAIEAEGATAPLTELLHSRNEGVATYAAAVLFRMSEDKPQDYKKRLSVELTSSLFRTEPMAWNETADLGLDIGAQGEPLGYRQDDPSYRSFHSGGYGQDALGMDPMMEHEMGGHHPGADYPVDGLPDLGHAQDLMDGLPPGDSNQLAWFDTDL

[2] = biological target: T2, beta-catenin/TCF4 engagement (Homo sapiens, UniProt P35222); assay: Nano-BRET target engagement assay (B-cat-Halo & TCF4-Luc in HEK293 cells); assay type: cell-based; settings: read-out: NanoBRET Abs IC50
T2 construct: expressed in transfected cells; host or cells: HEK293
T2 sequence (P35222 1-781): T1 sequence (P35222 1-781)

| pIC50 [1] | pIC50 ([2]; absolute IC50) | pIC50 [2] | SMILES |
| --- | --- | --- | --- |
| 8.15 | < 4.70 |  | CC(=O)N1CCC[C@]12CC=CCCCC1(CCCC=CCCCOC(=O)N3CC[C@@](C(=O)N[C@@H](Cc4ccsc4)C(=O)N[C@@H](Cc4csc5ccccc45)C(=O)N[C@@H](Cc4c[nH]cn4)C(N)=O)(C3)NC(=O)[C@H](CC(N)=O)NC(=O)[C@H](Cc3ccccc3)NC(=O)[C@H](C)NC(=O)C(C)(C)NC(=O)[C@H]([C@@H](C)O)NC(=O)[C@H](CC(N)=O)NC1=O)NC(=O)[C@H](CC(C)(C)C)NC(=O)[C@H](CC(=O)O)NC2=O (stereo partly drawn) [I-2414, Ac-PL3-Asp-Npg-B5-Asn-Thr-Aib-Ala-Phe-Asn-PyrS2-3Thi-BztA-His-NH2] |
| 7.96 |  | 4.69 | CC(=O)N1CCC[C@]12CC=CCCCC1(CCCC=CCCCOC(=O)N3CC[C@@](C(=O)N[C@@H](Cc4ccsc4)C(=O)N[C@@H](Cc4csc5ccccc45)C(=O)N[C@@H](C)C(N)=O)(C3)NC(=O)[C@H](CC(C)C)NC(=O)[C@H](Cc3ccccc3)NC(=O)[C@H](C)NC(=O)[C@H](CCCCNC(C)C)NC(=O)[C@H](Cc3cccc(C(=O)O)c3)NC(=O)[C@H](CC(=O)O)NC1=O)NC(=O)[C@H](CC(C)(C)C)NC(=O)[C@H](CC(=O)O)NC2=O (stereo partly drawn) [I-1915, Ac-PL3-Asp-Npg-B5-Asp-3COOHF-iPrLys-Ala-Phe-Leu-PyrS2-3Thi-BztA-Ala-NH2] |
| 8.10 | 4.59 |  | CC(=O)N1CCC[C@]12CC=CCCCC1(CCCC=CCCCOC(=O)N3CC[C@@](C(=O)N[C@@H](Cc4ccsc4)C(=O)N[C@@H](Cc4csc5ccccc45)C(=O)N[C@@H](CCC(=O)N4CCN(CCCN(C)C)CC4)C(N)=O)(C3)NC(=O)[C@H](CC(C)C)NC(=O)[C@H](Cc3ccccc3)NC(=O)[C@H](C)NC(=O)[C@H](C)NC(=O)[C@H](CN(CC(=O)O)CC(F)(F)F)NC(=O)[C@H](CC(=O)O)NC1=O)NC(=O)[C@H](CC(C)(C)C)NC(=O)[C@H](CC(=O)O)NC2=O (stereo partly drawn) [I-1799, Ac-PL3-Asp-Npg-B5-Asp-TfeGA-Ala-Ala-Phe-Leu-PyrS2-3Thi-BztA-[Me2NPrPip]GlnR-NH2] |
| 8.30 | 5.38 |  | CCCC[C@@H]1NC(=O)[C@H](Cc2ccccc2)NC(=O)[C@H](C)NC(=O)[C@H](C)NC(=O)[C@H](Cc2cccc(C(=O)O)c2)NC(=O)[C@H](CC(=O)O)NC(=O)C2(CCCC=CCCCOC(=O)N3CC[C@@](C(=O)N[C@@H](Cc4ccsc4)C(=O)N[C@@H](Cc4csc5ccccc45)C(=O)N[C@@H](CCC(N)=O)C(N)=O)(C3)NC1=O)CCCC=CC[C@]1(CCCN1C(C)=O)C(=O)N[C@@H](CC(=O)O)C(=O)N[C@@H](CC(C)C)C(=O)N2 (stereo partly drawn) [I-1407, Ac-PL3-Asp-Leu-B5-Asp-3COOHF-Ala-Ala-Phe-nLeu-PyrS2-3Thi-BztA-Gln-NH2] |
| 8.15 | 4.83 |  | CC[C@@H]1NC(=O)[C@H](Cc2ccccc2)NC(=O)[C@H](C)NC(=O)C(C)(C)NC(=O)[C@H](Cc2cccc(C(=O)O)c2)NC(=O)[C@H](CC(=O)O)NC(=O)C2(CCCC=CCCCOC(=O)N3CC[C@@](C(=O)N[C@@H](Cc4ccsc4)C(=O)N[C@@H](Cc4csc5ccccc45)C(=O)N[C@@H](CCC(=O)N4CCOCC4)C(N)=O)(C3)NC1=O)CCCC=CC[C@]1(CCCN1C(C)=O)C(=O)N[C@@H](CC(=O)O)C(=O)N[C@@H](CC(C)(C)C)C(=O)N2 (stereo partly drawn) [I-2558, Ac-PL3-Asp-Npg-B5-Asp-3COOHF-Aib-Ala-Phe-Abu-PyrS2-3Thi-BztA-[Morph]GlnR-NH2] |
| 7.49 |  | 5.11 | CC(=O)N1CCC[C@]12CC=CCCCC1(CCCC=CCCCOC(=O)N3CC[C@@](C(=O)N[C@@H](Cc4ccccc4Cl)C(=O)N[C@@H](Cc4csc5ccccc45)C(=O)N[C@@H](C)C(N)=O)(C3)NC(=O)[C@H](C)NC(=O)[C@H](Cc3ccccc3)NC(=O)[C@H](C)NC(=O)[C@H](C)NC(=O)[C@H](Cc3cccc(C(=O)O)c3)NC(=O)[C@H](CC(=O)O)NC1=O)NC(=O)[C@H](CC(C)(C)C)NC(=O)[C@H](CC(=O)O)NC2=O (stereo partly drawn) [I-2023, Ac-PL3-Asp-Npg-B5-Asp-3COOHF-Ala-Ala-Phe-Ala-PyrS2-2C1F-BztA-Ala-NH2] |
| 7.62 | 4.62 |  | CC(=O)N1CCC[C@]12CC=CCCCC1(CCCC=CCCCOC(=O)N3CC[C@@](C(=O)N[C@@H](Cc4ccsc4)C(=O)N[C@@H](Cc4csc5ccccc45)C(=O)N[C@H](C(N)=O)C(C)C)(C3)NC(=O)[C@H](CC(C)C)NC(=O)[C@H](Cc3ccccc3)NC(=O)[C@H](C)NC(=O)[C@H](C)NC(=O)[C@H](CC(=O)O)NC(=O)[C@H](CC(=O)O)NC1=O)NC(=O)[C@H](CC(C)(C)C)NC(=O)[C@H](CC(=O)O)NC2=O (stereo partly drawn) [I-1495, Ac-PL3-Asp-Npg-B5-Asp-Asp-Ala-Ala-Phe-Leu-PyrS2-3Thi-BztA-Val-NH2] |
| 7.12 | < 4.70 |  | CC(=O)N1CCC[C@]12CC=CCCCC1(CCCC=CCCCOC(=O)N3CC[C@@](C(=O)N[C@@H](Cc4ccsc4)C(=O)N[C@@H](Cc4csc5ccccc45)C(=O)N[C@@H](CCC(N)=O)C(N)=O)(C3)NC(=O)[C@H](CC(C)C)NC(=O)[C@H](Cc3ccccc3)NC(=O)[C@H](C)NC(=O)[C@H](C)NC(=O)[C@H](CCNCC(=O)O)NC(=O)[C@H](CC(=O)O)NC1=O)NC(=O)[C@H](CC(C)(C)C)NC(=O)[C@H](CC(=O)O)NC2=O (stereo partly drawn) [I-1841, Ac-PL3-Asp-Npg-B5-Asp-GAbu-Ala-Ala-Phe-Leu-PyrS2-3Thi-BztA-Gln-NH2] |
| 7.80 | 5.40 |  | CC(=O)N1CCC[C@]12CC=CCCCC1(CCCC=CCCCOC(=O)N3CC[C@@](C(=O)N[C@@H](Cc4ccccc4C(F)(F)F)C(=O)N[C@@H](Cc4csc5ccccc45)C(=O)N[C@@H](CCC(=O)N4CCOCC4)C(N)=O)(C3)NC(=O)[C@H](CCC(=O)N(C)C)NC(=O)[C@H](Cc3ccccc3)NC(=O)[C@H](C)NC(=O)[C@H](C)NC(=O)[C@H](Cc3cccc(C(=O)O)c3)NC(=O)[C@H](CC(=O)O)NC1=O)NC(=O)[C@H](CC(C)(C)C)NC(=O)[C@H](CC(=O)O)NC2=O (stereo partly drawn) [I-2545, Ac-PL3-Asp-Npg-B5-Asp-3COOHF-Ala-Ala-Phe-Me2Gln-PyrS2-2F3MeF-BztA-MorphGln-NH2] |
| 7.17 | < 4.70 |  | CC(=O)N1CCC[C@]12CC=CCCCC1(CCCC=CCCCCCC[C@@](C)(C(=O)N[C@@H](Cc3ccccc3)C(=O)N[C@@H](Cc3csc4ccccc34)C(=O)N[C@@H](CCC(N)=O)C(N)=O)NC(=O)[C@H](CCO)NC(=O)[C@H](Cc3ccccc3)NC(=O)[C@H](C)NC(=O)[C@H](C)NC(=O)[C@H](CCC(=O)O)NC(=O)[C@H](CC(=O)O)NC1=O)NC(=O)[C@H](CCO)NC(=O)[C@H](CC(=O)O)NC2=O (stereo partly drawn) [I-1547, Ac-PL3-Asp-Hse-B5-Asp-Glu-Ala-Ala-Phe-Hse-S8-Phe-BztA-Gln-NH2] |
| 6.67 | < 4.70 |  | CNC(=O)CC[C@@H]1NC(=O)[C@H](CCC(N)=O)NC(=O)[C@H](CC(=O)O)NC(=O)C2(CCCC=CCCCOC(=O)N3CC[C@@](C(=O)N[C@@H](Cc4ccccc4)C(=O)N[C@@H](Cc4csc5ccccc45)C(=O)N[C@@H](CC(=O)N4CCOCC4)C(N)=O)(C3)NC(=O)[C@H](CC(C)C)NC(=O)[C@H](Cc3ccccc3)NC(=O)[C@H](C)NC1=O)CCCC=CC[C@]1(CCCN1C(C)=O)C(=O)N[C@@H](CC(N)=O)C(=O)N[C@@H](CC1CCCCC1)C(=O)N2 (stereo partly drawn) [I-2502, Ac-PL3-Asn-Cha-B5-Asp-Gln-MeGln-Ala-Phe-Leu-PyrS2-Phe-BztA-MorphAsn-NH2] |
| 6.81 | < 4.70 |  | CC(=O)N1CCC[C@]12CC=CCCCC1(CCCC=CCCCOC(=O)N3CC[C@@](C(=O)N[C@@H](Cc4ccccc4)C(=O)N[C@@H](Cc4csc5ccccc45)C(=O)N[C@@H](CC(=O)N4CCOCC4)C(N)=O)(C3)NC(=O)[C@H](CC(C)C)NC(=O)[C@H](Cc3ccccc3)NC(=O)[C@H](C)NC(=O)[C@H](CCC(=O)N(C)C)NC(=O)[C@H](CCC(N)=O)NC(=O)[C@H](CC(=O)O)NC1=O)NC(=O)[C@H](CC1CCCCC1)NC(=O)[C@H](CC(N)=O)NC2=O (stereo partly drawn) [I-2501, Ac-PL3-Asn-Cha-B5-Asp-Gln-Me2Gln-Ala-Phe-Leu-PyrS2-Phe-BztA-MorphAsn-NH2] |
| 7.55 | < 4.70 |  | CC(=O)N1CCC[C@]12CC=CCCCC1(CCCC=CCCCCCC[C@@](C)(C(=O)N[C@@H](Cc3ccccc3)C(=O)N[C@@H](Cc3csc4ccccc34)C(=O)N[C@@H](CCC(N)=O)C(N)=O)NC(=O)[C@H](CCO)NC(=O)[C@H](Cc3ccccc3)NC(=O)[C@H](C)NC(=O)[C@H](C)NC(=O)[C@H](CCC(=O)O)NC(=O)[C@H](CC(=O)O)NC1=O)NC(=O)[C@H](CCO)NC(=O)[C@H](CC(=O)O)NC2=O (stereo partly drawn) [I-1548, Ac-PL3-Asp-Hse-B5-Asp-Glu-Ala-Ala-Phe-Hse-S8-Phe-BztA-Gln-NH2] |
